Like-named read-outs stand apart in the source and are kept apart here.

Data on 15 compounds can be found in US20090246293A1 (priority 2008, published 2009).

Assay [1] deals with Phytophthora infestans (PHYTIN). The assay is classed as in vivo. To be noted: for effect of Formulation I on the effectiveness of fungicides, PHYTIN: Table 20; for Reduction in percent disease, Formul. II / Reduction in percent disease, Formul. I: PHYTIN.
The test system of assay [2] is Pseudoperonospora cubensis (PSPECU). The following applies: in vivo.
Assay [3] relates to Plasmopara viticola (PLASVI). The assay is classed as in vivo. To be noted: for effect of Formulation I on the effectiveness of fungicides, PLASVI: Table 20; for Reduction in percent disease, Formul. I / Reduction in percent disease, Formul. II: PLASVI.
[4] abbreviates: fungicide with Formulation I at 100 ppm.
[5] abbreviates: fungicide with Formulation I at 100 ppm, Table 19.
Setting [6] is: aldehyde derivative 500 ppm with mancozeb, Table 16.
Where [7] appears, read: fungicide with Formulation II at 100 ppm of attractant derivative, Table 22.
Where [8] appears, read: fungicide with Formulation I at 100 ppm, Table 18.
Where [9] appears, read: fungicide with Formulation I at 100 ppm, Table 21.
[10] abbreviates: fungicide with Formulation II at 100 ppm, Table 21.

In the case of `[Cl-].[Cu+2].[Cu+2].[OH-].[OH-].[OH-]` [Copper oxychloride], in assay [1] (setting [4]), the “effect of Formulation I on the effectiveness of fungicides, PHYTIN” value (“effect of Formulation I … PHYTIN” below) is reported as “x (0-20% reduction in percent disease)”. In addition, the “effect of Formulation I on the effectiveness of fungicides, PSPECU” value (from here on “effect of Formulation I … PSPECU”) in assay [2] is “x (key: x: 0-20% reduction in percent disease; xx: 21-35% reduction in percent disease; xxx: 36-50% reduction in percent disease; xxxx: >50% reduction in percent disease)”. For the same compound, the “effect of Formulation I on the effectiveness of fungicides, PLASVI” value (“effect of Formulation I … PLASVI” for short) in assay [3] (setting [4]) is given as “x (0-20% reduction in percent disease)”.
As for `COc1ccc(C(=CC(=O)N2CCOCC2)c2ccc(Cl)cc2)cc1OC` [Dimethomorph], the “Reduction in percent disease PHYTIN” value in assay [1] (setting [5]) is given as “x (0-20% reduction in percent disease)”. In addition, the “Reduction in percent disease PSPECU” value in assay [2] is given as “x (key: x: 0-20% reduction in percent disease; xx: 21-35% reduction in percent disease; xxx: 36-50% reduction in percent disease; xxxx: >50% reduction in percent disease)”. The “Reduction in percent disease PLASVI” value in assay [3] (setting [5]) was “xx (21-35% reduction in percent disease)”.
Take `COCC(=O)N(c1c(C)cccc1C)C(C)C(=O)OC` (stereo not drawn) [Metalaxyl]: in assay [1] (setting [4]), the “effect of Formulation I … PHYTIN” value is on record as “xx (21-35% reduction in percent disease)”. In addition, the “effect of Formulation I … PSPECU” value in assay [2] is reported as “x (key: x: 0-20% reduction in percent disease; xx: 21-35% reduction in percent disease; xxx: 36-50% reduction in percent disease; xxxx: >50% reduction in percent disease)”. In addition, the “effect of Formulation I … PLASVI” value in assay [3] (setting [4]) is listed as “x (0-20% reduction in percent disease)”.
Consider `CC(C)(C)C/C=N/NC(=O)c1cccc(C(=O)N/N=C/CC(C)(C)C)c1` [Compound S], for which the “Reduction in percent disease PHYTIN” value in assay [1] (setting [6]) was “xx (21-35% reduction in percent disease)”. The “Reduction in percent disease PSPECU” value in assay [2] is reported as “x (key: x: 0-20% reduction in percent disease; xx: 21-35% reduction in percent disease; xxx: 36-50% reduction in percent disease; xxxx: >50% reduction in percent disease)”. The “Reduction in percent disease PLASVI” value in assay [3] (setting [6]) was “x (0-20% reduction in percent disease)”.
As to `C#CCOc1ccc(CCNC(=O)C(OCC#C)c2ccc(Cl)cc2)cc1OC` (stereo not drawn) [Mandipropamid], in assay [1] (setting [5]), the “Reduction in percent disease PHYTIN” value is “x (0-20% reduction in percent disease)”. Besides, the “Reduction in percent disease PSPECU” value in assay [2] is recorded as “x (key: x: 0-20% reduction in percent disease; xx: 21-35% reduction in percent disease; xxx: 36-50% reduction in percent disease; xxxx: >50% reduction in percent disease)”. Besides, the “Reduction in percent disease PLASVI” value in assay [3] (setting [5]) is “xx (21-35% reduction in percent disease)”.
Turning to `C[C@@]1(c2ccc(Oc3ccccc3)cc2)OC(=O)N(Nc2ccccc2)C1=O` (racemic) [Famoxadone], the “Reduction in percent disease PHYTIN” value in assay [1] (setting [5]) is listed as “xx (21-35% reduction in percent disease)”. In addition, the “Reduction in percent disease PSPECU” value in assay [2] is reported as “x (key: x: 0-20% reduction in percent disease; xx: 21-35% reduction in percent disease; xxx: 36-50% reduction in percent disease; xxxx: >50% reduction in percent disease)”. Also, the “Reduction in percent disease PLASVI” value in assay [3] (setting [5]) is reported as “x (0-20% reduction in percent disease)”.
On to `CO/C=C(/C(=O)OC)c1ccccc1COc1cccc(C(F)(F)F)n1` [Picoxystrobin], for which the “Reduction in percent disease, Formul. II” value in assay [1] (setting [7]) is “x (0-20% reduction in percent disease)”; in assay [2], “x (key: x: 0-20% reduction in percent disease; xx: 21-35% reduction in percent disease; xxx: 36-50% reduction in percent disease; xxxx: >50% reduction in percent disease)”. For the same compound, the “Reduction in percent disease PHYTIN” value in assay [1] (setting [8]) is “x (0-20% reduction in percent disease)”. For the same compound, the “Reduction in percent disease PLASVI” value in assay [3] (setting [8]) was “xxx (36-50% reduction in percent disease)”.
For `C/C(CC(C)C)=N\NC(=O)Nc1ccccc1` [Compound O], the “Reduction in percent disease PHYTIN” value in assay [1] (setting [6]) was “xx (21-35% reduction in percent disease)”. Moreover, the “Reduction in percent disease PSPECU” value in assay [2] is “xx (key: x: 0-20% reduction in percent disease; xx: 21-35% reduction in percent disease; xxx: 36-50% reduction in percent disease; xxxx: >50% reduction in percent disease)”. Moreover, in assay [3] (setting [6]), the “Reduction in percent disease PLASVI” value was “x (0-20% reduction in percent disease)”.
As for `Cc1c(Br)c2ccc(F)cc2n1S(=O)(=O)c1ncn(S(=O)(=O)N(C)C)n1` [Amisulbrom], the “Reduction in percent disease, Formul. I” value in assay [1] (setting [9]) was “x (0-20% reduction in percent disease)”; in assay [2], “x (key: x: 0-20% reduction in percent disease; xx: 21-35% reduction in percent disease; xxx: 36-50% reduction in percent disease; xxxx: >50% reduction in percent disease)”; in assay [3] (setting [9]), “xxx (36-50% reduction in percent disease)”. Further, the “Reduction in percent disease, Formul. II” value was “x (0-20% reduction in percent disease)” in assay [1] (setting [10]), “x (key: x: 0-20% reduction in percent disease; xx: 21-35% reduction in percent disease; xxx: 36-50% reduction in percent disease; xxxx: >50% reduction in percent disease)” in assay [2] and “xx (21-35% reduction in percent disease)” in assay [3] (setting [10]). In addition, the “effect of Formulation I … PHYTIN” value in assay [1] (setting [4]) was “x (0-20% reduction in percent disease)”. For the same compound, the “effect of Formulation I … PLASVI” value in assay [3] (setting [4]) is “x (0-20% reduction in percent disease)”.
Turning to “condensation product of urea and 2- methylbutyraldehyde [Compound Q]”, in assay [1] (setting [6]), the “Reduction in percent disease PHYTIN” value was “x (0-20% reduction in percent disease)”. Further, the “Reduction in percent disease PSPECU” value in assay [2] is recorded as “x (key: x: 0-20% reduction in percent disease; xx: 21-35% reduction in percent disease; xxx: 36-50% reduction in percent disease; xxxx: >50% reduction in percent disease)”. For the same compound, the “Reduction in percent disease PLASVI” value in assay [3] (setting [6]) is “x (0-20% reduction in percent disease)”.
For the compound `CCCCCCCCCc1c(COC)nc2ncnn2c1N` [Compound T], the “Reduction in percent disease, Formul. I” value in assay [1] (setting [9]) is “x (0-20% reduction in percent disease)”; in assay [2] it was “x (key: x: 0-20% reduction in percent disease; xx: 21-35% reduction in percent disease; xxx: 36-50% reduction in percent disease; xxxx: >50% reduction in percent disease)”; in assay [3] (setting [9]) it was “x (0-20% reduction in percent disease)”. In addition, the “Reduction in percent disease, Formul. II” value was “x (0-20% reduction in percent disease)” in assay [1] (setting [10]), “x (key: x: 0-20% reduction in percent disease; xx: 21-35% reduction in percent disease; xxx: 36-50% reduction in percent disease; xxxx: >50% reduction in percent disease)” in assay [2] and “x (0-20% reduction in percent disease)” in assay [3] (setting [10]).
As for `CNC(=O)/C(=N/OC)c1ccccc1COc1cc(C)ccc1C` [Dimoxystrobin], the “Reduction in percent disease PHYTIN” value in assay [1] (setting [5]) is listed as “x (0-20% reduction in percent disease)”. The “Reduction in percent disease PSPECU” value in assay [2] was “x (key: x: 0-20% reduction in percent disease; xx: 21-35% reduction in percent disease; xxx: 36-50% reduction in percent disease; xxxx: >50% reduction in percent disease)”. Moreover, the “Reduction in percent disease PLASVI” value in assay [3] (setting [5]) is given as “x (0-20% reduction in percent disease)”.
Regarding `CC(C)[C@H](NC(=O)O)C(=O)N[C@H](C)c1nc2ccc(F)cc2s1` [Benthiavalicarb], the “Reduction in percent disease PHYTIN” value in assay [1] (setting [5]) is “x (0-20% reduction in percent disease)”. Besides, in assay [2], the “Reduction in percent disease PSPECU” value is on record as “xx (key: x: 0-20% reduction in percent disease; xx: 21-35% reduction in percent disease; xxx: 36-50% reduction in percent disease; xxxx: >50% reduction in percent disease)”. Moreover, the “Reduction in percent disease PLASVI” value in assay [3] (setting [5]) was “x (0-20% reduction in percent disease)”.
`COCC(=O)N(c1c(C)cccc1C)[C@H](C)C(=O)OC` [Mefenoxam]: the “Reduction in percent disease, Formul. II” value in assay [1] (setting [7]) is on record as “xx (21-35% reduction in percent disease)”; in assay [2], “x (key: x: 0-20% reduction in percent disease; xx: 21-35% reduction in percent disease; xxx: 36-50% reduction in percent disease; xxxx: >50% reduction in percent disease)”; in assay [3] (setting [7]), “xx (21-35% reduction in percent disease)”. Besides, the “Reduction in percent disease PHYTIN” value in assay [1] (setting [8]) is recorded as “xxxx (>50% reduction in percent disease)”. In addition, the “effect of Formulation I … PHYTIN” value in assay [1] (setting [4]) is reported as “xx (21-35% reduction in percent disease)”. Besides, in assay [3] (setting [4]), the “effect of Formulation I … PLASVI” value is reported as “x (0-20% reduction in percent disease)”.
`O=C(NCc1ncc(C(F)(F)F)cc1Cl)c1c(Cl)cccc1Cl` [Fluopicolide]: the “effect of Formulation I … PHYTIN” value in assay [1] (setting [4]) is “xx (21-35% reduction in percent disease)”. Further, the “effect of Formulation I … PSPECU” value in assay [2] is “x (key: x: 0-20% reduction in percent disease; xx: 21-35% reduction in percent disease; xxx: 36-50% reduction in percent disease; xxxx: >50% reduction in percent disease)”. Moreover, the “Reduction in percent disease, Formul. II” value in assay [3] (setting [7]) is “x (0-20% reduction in percent disease)”.
